For 4 molecules, solubility and stability results are on record in patent EP0139983A1, “Crystalline salts of L or (S)-3-(3,4-dihydroxyphenyl)-2-methylalanine esters and process” (Merck & Co., Inc., priority 1983, dated 1985).

Structures can show the parent of a compound that is named as a salt. Where two headings read alike, the source gives them in different places.

Series [1] can be described thus: Solubility in aqueous media. Particulars: salt solubility is system dependent (amount of salt present, relative amount of (R) and (S) salts). Format: physicochemical.
Series [2] in a line: Stability (aqueous environment, mechanical stress, heat and compression). Particulars: subjected to an aqueous environment or to mechanical stress such as grinding. It counts as physicochemical.

For the molecule `CC(OC(=O)C(C)(C)C)OC(=O)C(C)(N)Cc1ccc(O)c(O)c1` (stereo not shown) [solvated tartaric acid salt mixture], the solubility in series [1] lay within 156 to 383 grams per liter.

On to `CC(OC(=O)C(C)(C)C)OC(=O)C(C)(N)Cc1ccc(O)c(O)c1` (mixture of isomers) [solvated phosphate salt mixture of (R,S)-POE ester of methyl], for which the solubility in series [1] was 57 to 197 grams per liter. With `C[C@](N)(Cc1ccc(O)c(O)c1)C(=O)O` (single isomer, unassigned) [methyldopa, L or (S)-3-(3,4-dihydroxyphenyl)-2-methylalanine], the solubility in series [1] (read-out: solubility) was 10000 µg/mL. `CC(OC(=O)C(C)(C)C)OC(=O)[C@@](C)(N)Cc1ccc(O)c(O)c1` (stereo partly drawn) [POE ester bases, (R,S)-l-pivaloyloxyethyl (S)-3-(3,4-dihydroxyphenyl)-2-methylalaninate]: the stability result in series [2] is given as “tend to be unstable”.
